Laboratory results taken from patent publication EP0114002B1, “Benzothiopyrano(4,3,2,-cd)indazoles, their pharmaceutical compositions and methods for their production” (WARNER-LAMBERT COMPANY, priority 1983, dated 1984).

Key:
HCT-8 cells = test: in vitro proliferating human colon adenocarcinoma (HCA) cell screen; assay type: cell-based; conditions: Table 1, 60 to 65 hours with compound, 50% inhibition of growth, read-out: HCA—3 in vitro ID50
How it was run: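 HCT-8 cells grown 48 h at 37 °C in RPMI 1640/10% FCS, then exposed to compound for a further 60–65 h. Nuclei counted by Coulter counter after lysis; percent growth per concentration gives ID50 as molar concentration causing 50% growth inhibition.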

[1] = system: Penicillium avellaneum M2988; test: in vitro antibacterial/antifungal (ABF) agar-disk diffusion test; assay type: cell-based; conditions: Hamigera avellanea, 3 mg/ml, read-out: ABF Zone Diameter (cont. in mg/ml) P. Avell-aneum
Bacillus subtilis 04555 = test: as above; assay type: cell-based; conditions: 0.5 mg/ml, read-out: ABF Zone Diameter (cont. in mg/ml) B. Sub-tilis
[2] = system: Streptococcus faecalis 05045; test: as above; assay type: cell-based; conditions: Enterococcus faecalis, AM-09 medium, read-out: ABF Zone Diameter (cont. in mg/ml) S. Fae-calis
Escherichia coli 04863 = test: as above; assay type: cell-based; conditions: read-out: ABF Zone Diameter (cont. in mg/ml) E. Coli
[3] = system: Aerobacter aerogenes 0126; test: as above; assay type: cell-based; conditions: Klebsiella aerogenes, read-out: ABF Zone Diameter (cont. in mg/ml) A. Aero-genes
[4] = system: lymphocytic leukemia P388; test: in vivo lymphocytic leukemia P388 test; design: species or system mice; conditions: Mus musculus, P388, ip, 120 h, read-out: P388 in vivo T/C × 100; for response vs control in vivo at 6.25 mg/kg: Dose 6.25 mg/kg intraperitoneally once daily for five days; for response vs control in vivo at 12.5 mg/kg: Dose 12.50 mg/kg intraperitoneally once daily for five days
How it was run: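 CD2F mice, 6-7 per group, inoculated IP with P388 leukemia ascitic cells, then dosed IP once daily for five consecutive days at various doses. Survival and weights tracked for 30 days; activity expressed as treated/control survival time ×100, with ≥125 as efficacy criterion. Deaths of all animals within four days flagged as toxic.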

L1210 cells = test: L1210 murine leukemia cell growth inhibition in vitro; assay type: cell-based; conditions: Mus musculus, 72 h, Table 1, three days incubation, 50% inhibition of growth, read-out: L1210 in vitro ID50
How it was run: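 Murine L1210 leukemia cells (3 x 10^4 cells/ml) in RPMI 1640 with 5% FBS were exposed to drug dilutions for 3 days at 37 °C and 5% CO2. Cells were then Coulter-counted, growth was expressed relative to solvent and medium controls, and ID50 was given in mol/L.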

Compound OCCNCCNc1ccc2c3c(nn2CCNCCO)-c2ccccc2Sc13 [CH2CH2NHCH2CH2OH / NHCH2CH2NHCH2CH2OH, 2-[[2-[5-[[2-[(2-Hydroxyethyl)amino]ethyl]amino]-2H[1]benzothiopyrano[4,3,2-cd]indazol-2-yl]ethyl]amino]ethanol] has an IC50 (HCT-8 cells) of 480 nM, a zone of inhibition at 3000 µg/mL [1] of 0 mm and a zone of inhibition at 500 µg/mL (Bacillus subtilis 04555) of 15 mm. The zone of inhibition at 3000 µg/mL ([2]; 3 mg/ml) was 0 mm, the zone of inhibition at 500 µg/mL (Escherichia coli 04863; 0.5 mg/ml) was 14 mm and the zone of inhibition at 500 µg/mL ([3]; 0.5 mg/ml) was 14 mm. The response vs control in vivo at 0.75 mg/kg ([4]; Dose 0.75 mg/kg intraperitoneally once daily for five days) was 146%, the response vs control in vivo at 0.78 mg/kg ([4]; Dose 0.78 mg/kg intraperitoneally once daily for five days) was 153% and the response vs control in vivo at 1.5 mg/kg ([4]; Dose 1.50 mg/kg intraperitoneally once daily for five days) was 155%. It also gave a response vs control in vivo at 1.56 mg/kg ([4]; Dose 1.56 mg/kg intraperitoneally once daily for five days) of 180%, a response vs control in vivo at 3 mg/kg ([4]; Dose 3.00 mg/kg intraperitoneally once daily for five days) of 187% and a response vs control in vivo at 3.12 mg/kg ([4]; Dose 3.12 mg/kg intraperitoneally once daily for five days) of 176%. For the same compound, the response vs control in vivo at 6 mg/kg ([4]; Dose 6.00 mg/kg intraperitoneally once daily for five days) was 218%, the response vs control in vivo at 6.25 mg/kg [4] was 195% and the response vs control in vivo at 12 mg/kg ([4]; Dose 12.00 mg/kg intraperitoneally once daily for five days) was 270%. The response vs control in vivo at 12.5 mg/kg [4] was 271% and the IC50 (L1210 cells) was 400 nM.

For O=[N+]([O-])c1ccc2c3c(nn2CCNCCO)-c2ccccc2Sc13 [CH2CH2NHCH2CH2OH / NO2, 2-[[2-(5-Nitro-2H[1]benzothiopyrano[4,3,2-cd]indazol-2-yl)ethyl]amino]ethano], the IC50 (HCT-8 cells) was 100 nM, the zone of inhibition at 3000 µg/mL [1] was 0 mm and the zone of inhibition at 500 µg/mL (Bacillus subtilis 04555) was 18 mm. It also gave a zone of inhibition at 500 µg/mL ([2]; 0.5 mg/ml) of 15 mm, a zone of inhibition at 100 µg/mL (Escherichia coli 04863; 0.1 mg/ml) of 16 mm and a zone of inhibition at 100 µg/mL ([3]; 0.1 mg/ml) of 16 mm. For the same compound, the response vs control in vivo at 6.25 mg/kg [4] was 148%, the response vs control in vivo at 12.5 mg/kg [4] was 150% and the response vs control in vivo at 25 mg/kg ([4]; Dose 25.00 mg/kg intraperitoneally once daily for five days) was 197%. The IC50 (L1210 cells) was 20 nM.
